Several values for one entry are separate records, joined by “and”; a condition that tells them apart may be missing. Equal entries are not always repeated. Toxic doses and inconclusive results are not listed. Cut-off read from the data, not from the text of the source: active = T/C of 150% or more; inactive = T/C below 125%. Square brackets hold non-standard residues; d marks the D form. Peptide text beside a SMILES is read from it. ξ: configuration not given here. Ac5c = NC1(C(=O)O)CCCC1; ξS = NC(CO)C(=O)O
Test system: L1210 leukemia ip in BDF1 mice, survival T/C
Assay: NCI In Vivo Anticancer Drug Screen. Data for tumor model L1210 Leukemia (intraperitoneal) in B6D2F1 (BDF1) mice
Conditions: endpoint: mean survival time, higher = longer survival
Summary of the method: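 Read-out is survival time, reported as the treated-group measurement over the vehicle-control measurement.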

[1] = dose: 100.0 mg/kg/injection, schedule: Q04DX003 (ip), vehicle: saline
[2] = dose: 400.0 mg/kg/injection, schedule: Q01DX009 (ip), vehicle: saline with Tween-80
[3] = dose: 50.0 mg/kg/injection, schedule: Q01DX009 (ip), vehicle: saline with Tween-80
[4] = dose: 100.0 mg/kg/injection, schedule: Q01DX009 (ip), vehicle: saline with Tween-80
[5] = dose: 100.0 mg/kg/injection, schedule: Q04DX003 (ip), vehicle: saline with Tween-80
[6] = dose: 200.0 mg/kg/injection, schedule: Q04DX003 (ip), vehicle: saline with Tween-80
[7] = dose: 400.0 mg/kg/injection, schedule: Q04DX003 (ip), vehicle: saline with Tween-80
[8] = dose: 100.0 mg/kg/injection, schedule: Q01DX001 (ip), vehicle: saline
[9] = dose: 200.0 mg/kg/injection, schedule: Q01DX001 (ip), vehicle: saline
[10] = dose: 400.0 mg/kg/injection, schedule: Q01DX001 (ip), vehicle: saline
[11] = dose: 100.0 mg/kg/injection, schedule: Q04DX003 (ip), vehicle: Klucel (hydroxypropylcellulose) (HPC)
[12] = dose: 100.0 mg/kg/injection, schedule: Q04DX002 (ip), vehicle: Klucel (hydroxypropylcellulose) (HPC)
[13] = dose: 200.0 mg/kg/injection, schedule: Q04DX002 (ip), vehicle: Klucel (hydroxypropylcellulose) (HPC)
[14] = dose: 400.0 mg/kg/injection, schedule: Q04DX002 (ip), vehicle: Klucel (hydroxypropylcellulose) (HPC)
[15] = dose: 100.0 mg/kg/injection, schedule: Q01DX009 (ip), vehicle: Klucel (hydroxypropylcellulose) (HPC)

Measured: T/C

CN(C)c1ccc(C(Nc2ccccc2)C(Nc2ccccc2)c2ccc(N(C)C)cc2)cc1 (stereo not drawn)
inactive: dose: 100.0 mg/kg/injection, schedule: Q01DX001 (ip), vehicle: other 102 % of control | dose: 200.0 mg/kg/injection, schedule: Q01DX001 (ip), vehicle: other 87 % of control | dose: 400.0 mg/kg/injection, schedule: Q01DX001 (ip), vehicle: other 89 % of control

CCCCNCCCC
inactive: dose: 25.0 mg/kg/injection, schedule: Q04DX003 (ip), vehicle: saline 102 % of control | dose: 50.0 mg/kg/injection, schedule: Q04DX003 (ip), vehicle: saline 96 % of control | [1] 94 % of control

C=Cc1c(C)c2cc3[nH]c(cc4nc(cc5nc(cc1[nH]2)C(C)=C5CCC(=O)O)C(CCC(=O)O)=C4C)c(C)c3C=C
inactive: dose: 100.0 mg/kg/injection, schedule: Q04DX003 (ip), vehicle: dextrose 96 % of control | dose: 200.0 mg/kg/injection, schedule: Q04DX003 (ip), vehicle: dextrose 100 % of control | [2] 88 % of control | dose: 400.0 mg/kg/injection, schedule: Q04DX003 (ip), vehicle: dextrose 100 % of control

CC(C)=CCC/C(C)=C/CNc1ncnc2nc[nH]c12
inactive: [3] 103 % of control | [4] 100 % of control | dose: 100.0 mg/kg/injection, schedule: Q04DX003 (ip), vehicle: acetone 94 % of control | [5] 94 % of control | dose: 200.0 mg/kg/injection, schedule: Q01DX009 (ip), vehicle: saline with Tween-80 100 % of control | dose: 200.0 mg/kg/injection, schedule: Q04DX003 (ip), vehicle: acetone 101 % of control | [6] 95 % of control | [2] 105 % of control | [7] 90 % of control

Cc1ncc(C(N)=O)c(C)n1
inactive: [8] 95 % of control | [9] 101 % of control | [10] 101 % of control

CC(=O)Nc1nnc(/C=C/c2ccc([N+](=O)[O-])o2)s1
inactive: [11] 87 % of control | dose: 200.0 mg/kg/injection, schedule: Q04DX003 (ip), vehicle: Klucel (hydroxypropylcellulose) (HPC) 89 % of control | dose: 400.0 mg/kg/injection, schedule: Q04DX003 (ip), vehicle: Klucel (hydroxypropylcellulose) (HPC) 100 % of control

CCC[As](=O)(O)C(C)C
inactive: [1] 97 % of control

O=NN(CC(=O)O)c1ccc2ccccc2c1
inactive: dose: 100.0 mg/kg/injection, schedule: Q04DX002 (ip), vehicle: saline with Tween-80 90 % of control | dose: 200.0 mg/kg/injection, schedule: Q04DX002 (ip), vehicle: saline with Tween-80 90 % of control | dose: 400.0 mg/kg/injection, schedule: Q04DX002 (ip), vehicle: saline with Tween-80 93 % of control

S=C(Nc1ccccc1)Nc1ccc(Br)cc1
inactive: [12] 101 % of control | [13] 105 % of control | [14] 97 % of control

NS(=O)(=O)c1ccc(N2CCCCC2)c([N+](=O)[O-])c1
inactive: dose: 100.0 mg/kg/injection, schedule: Q01DX005 (ip), vehicle: other 105 % of control | dose: 200.0 mg/kg/injection, schedule: Q01DX005 (ip), vehicle: other 94 % of control | dose: 400.0 mg/kg/injection, schedule: Q01DX005 (ip), vehicle: other 108 % of control

CCCCOC(=O)OCNC(=O)Oc1ccc(Br)cc1Br
inactive: [15] 92 % of control | dose: 200.0 mg/kg/injection, schedule: Q01DX009 (ip), vehicle: Klucel (hydroxypropylcellulose) (HPC) 94 % of control | dose: 400.0 mg/kg/injection, schedule: Q01DX009 (ip), vehicle: Klucel (hydroxypropylcellulose) (HPC) 101 % of control

C1CCN(/N=N/c2nn[nH]n2)CC1
inactive: [5] 94 % of control | [6] 91 % of control | [7] 94 % of control

Cc1ccc2c(N=Nc3ccc(N(C)C)cc3)cccc2n1
inactive: dose: 25.0 mg/kg/injection, schedule: Q01DX009 (ip), vehicle: saline with Tween-80 93 % of control | [3] 93 % of control | [4] 98 % of control

Nc1ccc(N)c(C(=O)O)c1
inactive: dose: 75.0 mg/kg/injection, schedule: Q01DX001 (ip), vehicle: other 98 % of control | dose: 150.0 mg/kg/injection, schedule: Q01DX001 (ip), vehicle: other 93 % of control

O=c1c2ccccc2[nH]c2cc(Cl)ccc12
inactive: dose: 50.0 mg/kg/injection, schedule: Q01DX Z (ip), vehicle: carboxymethylcellulose (CMC) 109 % of control | dose: 100.0 mg/kg/injection, schedule: Q01DX Z (ip), vehicle: carboxymethylcellulose (CMC) 103 % of control | dose: 200.0 mg/kg/injection, schedule: Q01DX Z (ip), vehicle: carboxymethylcellulose (CMC) 97 % of control | dose: 400.0 mg/kg/injection, schedule: Q01DX Z (ip), vehicle: carboxymethylcellulose (CMC) 115 % of control

Cn1cc(Cl)nc1CO
inactive: dose: 100.0 mg/kg/injection, schedule: Q01DX009 (ip), vehicle: saline sonified 91 % of control | [1] 91 % of control | dose: 200.0 mg/kg/injection, schedule: Q01DX009 (ip), vehicle: saline sonified 102 % of control | dose: 200.0 mg/kg/injection, schedule: Q04DX003 (ip), vehicle: saline 107 % of control | dose: 400.0 mg/kg/injection, schedule: Q01DX009 (ip), vehicle: saline sonified 93 % of control | dose: 400.0 mg/kg/injection, schedule: Q04DX003 (ip), vehicle: saline 102 % of control

O=c1ccnc(SCc2ccc(Cl)cc2)[nH]1
inactive: dose: 110.0 mg/kg/injection, schedule: Q01DX Z (ip), vehicle: methylcellulose (MC) 87 % of control

CC12CCC(=O)C=C1CCC1C2C(=O)CC2(C)C1CCC2(O)C(=O)COC(=O)c1cc([N+](=O)[O-])cc([N+](=O)[O-])c1N1CC1 (stereo not drawn)
inactive: dose: 60.0 mg/kg/injection, schedule: Q01DX015 (ip), vehicle: saline 94 % of control | dose: 90.0 mg/kg/injection, schedule: Q01DX015 (ip), vehicle: saline 96 % of control | dose: 135.0 mg/kg/injection, schedule: Q01DX015 (ip), vehicle: saline 92 % of control | dose: 200.0 mg/kg/injection, schedule: Q01DX015 (ip), vehicle: saline 100 % of control

N#Cc1ccc(/C=C\c2ccc(C#N)cc2)cc1
inactive: dose: 0.6 mg/kg/injection, schedule: Q04DX002 (ip), vehicle: Klucel (hydroxypropylcellulose) (HPC) 104 % of control | dose: 1.2 mg/kg/injection, schedule: Q04DX002 (ip), vehicle: Klucel (hydroxypropylcellulose) (HPC) 104 % of control | dose: 2.5 mg/kg/injection, schedule: Q04DX002 (ip), vehicle: Klucel (hydroxypropylcellulose) (HPC) 97 % of control | dose: 50.0 mg/kg/injection, schedule: Q04DX002 (ip), vehicle: Klucel (hydroxypropylcellulose) (HPC) 104 % of control | [12] 104 % of control and 122 % of control | [13] 109 % of control and 110 % of control | [14] 98 % of control

COc1cc(Cl)ccc1NC(=O)Oc1ccc(F)cc1
inactive: dose: 100.0 mg/kg/injection, schedule: Q01DX009 (ip), vehicle: saline 123 % of control | dose: 200.0 mg/kg/injection, schedule: Q01DX009 (ip), vehicle: saline 101 % of control | dose: 400.0 mg/kg/injection, schedule: Q01DX009 (ip), vehicle: saline 115 % of control

CS(=O)c1cc2c(cc1[N+](=O)[O-])C(=O)c1ccccc1-2 (stereo not drawn)
inactive: dose: 20.0 mg/kg/injection, schedule: Q01DX009 (ip), vehicle: Klucel (hydroxypropylcellulose) (HPC) 107 % of control | dose: 40.0 mg/kg/injection, schedule: Q01DX009 (ip), vehicle: Klucel (hydroxypropylcellulose) (HPC) 117 % of control | dose: 50.0 mg/kg/injection, schedule: Q04DX003 (ip), vehicle: Klucel (hydroxypropylcellulose) (HPC) 97 % of control | [15] 95 % of control | [11] 93 % of control

CC1(C)C2CC3C=CCCC3(C2)C1Br (stereo not drawn)
inactive: dose: 100.0 mg/kg/injection, schedule: Q01DX001 (ip), vehicle: Klucel (hydroxypropylcellulose) (HPC) 103 % of control | dose: 200.0 mg/kg/injection, schedule: Q01DX001 (ip), vehicle: Klucel (hydroxypropylcellulose) (HPC) 92 % of control | dose: 400.0 mg/kg/injection, schedule: Q01DX001 (ip), vehicle: Klucel (hydroxypropylcellulose) (HPC) 100 % of control

NC(CO)C(=O)NC1(C(=O)O)CCCC1 (stereo not drawn) (H-[ξS]-[Ac5c]-OH)
inactive: [8] 100 % of control | [9] 107 % of control | [10] 107 % of control

Source: PubChem BioAssay AID248 (DTP/NCI, 2004)
